Reference: US12162850B2, “Formulations” (Betagenon AB, priority 2019, dated 2024)

Columns and labels:
[1] = Single dose oral pharmacokinetic studies in rabbits; type: in vivo, male New Zealand White rabbits; details: for Plasma concentration, mean: 90 mg/kg b.w. oral; for Cmax / MRT last / Tmax / AUC(0-t) / AUC(0-inf) / half-life: male, New Zealand White, plasma, po
Procedure: The studies detailed below (and referred to as Examples 2 to 8) were conducted to provide comparative single dose oral pharmacokinetics data for Compound 1, as well as sodium and potassium salts of that compound, using non-coated and enteric-coated capsules in male New Zealand White rabbits.
Compound 1 was made using the process described in WO 2011/004162 and milled as described for Example 1c. The non-coated or enteric coated gelatin capsules were individually filled with 180 mg of dry-milled Compound 1 together with accompanying excipients as indicated. Both capsule types were filled with Compound 1 together with 1.8 mg of sodium docusate, 0.18 mg of PVP K30 and 9 mg of mannitol.
Similarly, Compound 2, non-coated or enteric coated gelatin capsules were individually filled with 180 mg of dry-milled Compound 2 (as obtained in Example 1f) together with 1.8 mg of sodium docusate, 0.18 mg of PVP K30 and 9 mg of mannitol.
For Compound 3, non-coated or enteric coated gelatin capsules were individually filled with 90 mg of dry-milled Compound 3 (as obtained in Example 1i) together with 0.90 mg of sodium docusate, 0.09 mg of PVP K30 and 4.50 mg of mannitol.
40 mL of the 2% w/v methyl cellulose solution was added to a 250 mL conical flask together with 10 g of 2 mm glass beads, and vigorously stirred. Compound 1 (720 mg) was slowly added to the solution and the mixture was with continuously stirred for 1 h. The homogenate was transferred to separate flask and its pH recorded. The suspension formulation was prepared before administration to the animals.
Adult healthy male New Zealand white rabbits aged approximately 2 to 3 months old were used for experimentation after 7 days of acclimatization.
To dose the filled capsules, a soft plastic dosing tube was used. The filled capsule was inserted into the dosing tube so that the short end of the capsule protrudes slightly from the tip of the tube. The tip of the capsule was dipped in mineral oil to aid swallowing.
To dose the suspension, an infant feeding tube was used. The feeding tube was inserted through the mouth of the rabbit to the oesophagus and the stomach, and ascertained that it has not been placed in the trachea before dosing to the animals. The suspension of the Compound 1 was administered through the feeding tube. After the administration of the suspension, drinking water of approximately 2.0-2.5 mL was administered to flush out the contents in the feeding tube.
The animals were restrained in a rabbit restrainer and blood samples (400-500 μL/time point) were collected via the central ear artery at 0.16, 0.25, 0.50, 1.0, 2.0, 4.0, 6.0, 8.0, 24.0, 48.0 and 72 hours post-dosing. Collected blood specimens were centrifuged at 4000 or 6000 rpm, 4° C. for 10 minutes and plasma samples were separated and stored at −80° C. until analysis.
Concentrations of the analyte of Compound 1 in New Zealand white rabbits was determined using an API 3200 Q-trap LC-MS/MS system.
Chromatographic separation was achieved on Zorbax C18, 50×4.6 mm, 5 μm column with methanol-0.1% formic acid as mobile phase with gradient elution. The flow rate was set at 1.0 mL min^−1. Detection was accomplished by a triple-quadrupole tandem mass spectrometer in multiple-reaction monitoring (MRM) scanning via electrospray ionization source, applied in the positive mode. The optimised mass transition ion-pairs for quantitation were m/z 379.999→125.000 for the compound 1 and m/z 376.165→165.00 for the ISD (Haloperidol). Calibration plots were linear over the range of 11.062 to 20594.820 ng/mL.
The data of plasma concentration to respective time points for the analyte Compound 1 were used for the pharmacokinetic analysis. Pharmacokinetic analysis was performed using non-compartmental analysis (NCA) module of Phoenix WinNonlin 6.3 software to determine the following pharmacokinetic parameters: • Cmax • Tmax • AUC0-t • AUC0-∞ • T1/2 • MRT […]

[2] = Particle size analysis of dry-milled products (laser diffraction, Shimadzu SALD-2300); type: physicochemical
Procedure: Milling was performed for Examples 1a to 1c using an air jet mill (Equipment code: CP-AJM-01; Promas engineers) with the following parameters: Micronisation was repeated in all examples by performing the air jet milling for a second time using the same parameters. This allowed the particle size D90 to be reduced to less than 10 μm. [table] Four drops of Tween 20 were added to 25 mL of water and the mixture was sonicated for 3 minutes to form the dispersant solution. 0.05 g of milled material was transferred into a 250 mL glass beaker. 25 mL of the dispersant solution (Tween 20/water mixture) was added to the beaker with continuous swirling for 2 to 3 minutes. The suspension was transferred into the measuring unit and the particle size distribution measurements were conducted in triplicate.

[3] = rabbit, 25 mg/kg, enteric coated capsule with MgO, 25 mg/kg b.w. oral single dose, rabbit plasma (Example 9)
[4] = rabbit, 25 mg/kg, enteric coated capsule with mannitol, 25 mg/kg b.w. oral single dose, rabbit plasma (Example 10)
[5] = rabbit, 53 mg/kg, enteric coated capsule with MgO, 53 mg/kg b.w. (equivalent to 50 mg/kg Compound 1) oral single dose, rabbit plasma (Example 11)
[6] = rabbit, 90 mg/kg, enteric coated capsule, 90 mg/kg b.w. oral single dose, rabbit plasma (Examples 5, 6, 7)
[7] = rabbit, 90 mg/kg, non-coated capsule, 90 mg/kg b.w. oral single dose, rabbit plasma (Examples 2, 3, 4)
[8] = after 1st milling (air jet mill)
[9] = after 2nd milling (air jet mill)

O=C(Nc1nc(=O)n(Cc2ccc(Cl)cc2)s1)c1ccc(Cl)cc1.[Na] [Compound 2, 4-chloro-N-[2-[(4-chlorophenyl)methyl]-3-oxo-1,2,4-thiadiazol-5-yl]benzamide sodium salt]
Plasma concentration, mean ([1]; 0.00 h, enteric coated capsule, rabbit): 0.000 ng/mL
Plasma concentration, mean ([1]; 0.00 h, non-coated capsule, rabbit): 0.000 ng/mL
Plasma concentration, mean ([1]; 0.16 h, enteric coated capsule, rabbit): 0.000 ng/mL
Plasma concentration, mean ([1]; 0.16 h, non-coated capsule, rabbit): 0.000 ng/mL
Plasma concentration, mean ([1]; 0.25 h, enteric coated capsule, rabbit): 0.000 ng/mL
Plasma concentration, mean ([1]; 0.25 h, non-coated capsule, rabbit): 51.798 ng/mL
Plasma concentration, mean ([1]; 0.50 h, enteric coated capsule, rabbit): 0.000 ng/mL
Plasma concentration, mean ([1]; 0.50 h, non-coated capsule, rabbit): 206.386 ng/mL
Plasma concentration, mean ([1]; 1.00 h, enteric coated capsule, rabbit): 9.027 ng/mL
Plasma concentration, mean ([1]; 1.00 h, non-coated capsule, rabbit): 594.725 ng/mL
Plasma concentration, mean ([1]; 2.00 h, enteric coated capsule, rabbit): 13.276 ng/mL
Plasma concentration, mean ([1]; 2.00 h, non-coated capsule, rabbit): 1377.183 ng/mL
Plasma concentration, mean ([1]; 4.00 h, enteric coated capsule, rabbit): 624.216 ng/mL
Plasma concentration, mean ([1]; 4.00 h, non-coated capsule, rabbit): 15776.855 ng/mL
Plasma concentration, mean ([1]; 6.00 h, enteric coated capsule, rabbit): 11866.638 ng/mL
Plasma concentration, mean ([1]; 6.00 h, non-coated capsule, rabbit): 46144.063 ng/mL
Plasma concentration, mean ([1]; 8.00 h, enteric coated capsule, rabbit): 18413.782 ng/mL
Plasma concentration, mean ([1]; 8.00 h, non-coated capsule, rabbit): 71215.612 ng/mL
Plasma concentration, mean ([1]; 24.00 h, enteric coated capsule, rabbit): 99879.409 ng/mL
Plasma concentration, mean ([1]; 24.00 h, non-coated capsule, rabbit): 98809.233 ng/mL
Plasma concentration, mean ([1]; 48.00 h, enteric coated capsule, rabbit): 101178.612 ng/mL
Plasma concentration, mean ([1]; 48.00 h, non-coated capsule, rabbit): 93029.388 ng/mL
Plasma concentration, mean ([1]; 72.00 h, enteric coated capsule, rabbit): 90966.319 ng/mL
Plasma concentration, mean ([1]; 72.00 h, non-coated capsule, rabbit): 84071.553 ng/mL
improvement in systemic exposure compared with the milled free base active ingredient ([1]; dry milled, capsules, 90 mg/kg oral, rabbit): greatest improvements
increase in the systemic exposure compared to a standard suspension of the active ingredient (example 8) ([1]; dry milled, non-coated or enteric-coated capsules, 90 mg/kg oral, rabbit): up to six-fold
systemic exposure when formulated together with an alkaline excipient ([1]; enteric coated capsule with MgO, 53 mg/kg oral, rabbit (Example 11)): significant amount of systemic exposure
AUCextrap ([1]; enteric coated capsule, 90 mg/kg b.w. oral single dose, rabbit plasma (Examples 5, 6, 7)): 88.81 ± 3.497%
systemic exposure when formulated with an alkaline excipient in comparison with formulation in the absence of an alkaline excipient ([1]; enteric coated capsules, 25 mg/kg oral, rabbit, Example 9 (MgO) vs Example 10 (mannitol)): increase
Cmax [1, 3]: 49600 ± 4800 ng/mL
MRT last [1, 3]: 27.67 ± 0.11 h
Tmax [1, 3]: 24 h
Cmax [1, 4]: 47400 ± 7060 ng/mL
MRT last [1, 4]: 30 ± 1.73 h
Tmax [1, 4]: 32 ± 13.9 h
AUC(0-t) [1, 5]: 8930 ± 1190 µg·h/mL
Cmax [1, 5]: 153000 ± 24300 ng/mL
MRT last [1, 5]: 40.9 ± 1.43 h
AUC(0-inf) [1, 6]: 55700 ± 22700 µg·h/mL
AUC(0-t) [1, 6]: 5710 ± 1140 µg·h/mL
Cmax [1, 6]: 101000 ± 17000 ng/mL
MRT last [1, 6]: 43 ± 1.59 h
Tmax [1, 6]: 32 ± 13.9 h
half-life [1, 6]: 368 ± 109 h
AUC(0-inf) [1, 7]: 38100 ± 34700 µg·h/mL
AUC(0-t) [1, 7]: 5980 ± 2270 µg·h/mL
Cmax [1, 7]: 99000 ± 34600 ng/mL
MRT last [1, 7]: 38.8 ± 1.2 h
Tmax [1, 7]: 32 ± 13.9 h
half-life [1, 7]: 227 ± 140 h
AUCextrap ([1]; non-coated capsule, 90 mg/kg b.w. oral single dose, rabbit plasma (Examples 2, 3, 4)): 79.01 ± 8.87%
Particle size distribution D10 [2, 8]: 0.508 μm
Particle size distribution D50 [2, 8]: 3.58 μm
Particle size distribution D90 [2, 8]: 11.5 μm
Particle size distribution D100 [2, 8]: 31.1 μm
Particle size distribution D10 [2, 9]: 0.414 μm
Particle size distribution D50 [2, 9]: 2.70 μm
Particle size distribution D90 [2, 9]: 8.29 μm
Particle size distribution D100 [2, 9]: 24.0 μm
Particle size distribution D10 ([2]; before milling): 1.11 μm
Particle size distribution D50 ([2]; before milling): 7.62 μm
Particle size distribution D90 ([2]; before milling): 31.7 μm
Particle size distribution D100 ([2]; before milling): 185 μm
